Source: patent US11197856B2, “Bicyclic compounds and methods for their use in treating autism” (priority 2013, dated 2021)

Experiments:
BAX = test: PBBI in rats: BAX Western blotting; format: in vivo; conditions: 24 hr, 3 and 7 days after PBBI
Text: The unilateral frontal PBBI model, which mimics the ballistic dynamics of a bullet or fragment wound to the head (Williams, 2003; Williams, 2006), was induced by stereotactic insertion of a custom probe through the right frontal cortex. A temporary cavity was formed by the rapid inflation/deflation (i.e. <40 msec) of an elastic balloon attached to the end of the probe. The PBBI apparatus consisted of a computer-controlled hydraulic pressure generator (Mitre Corp McLean, Va.), a PBBI probe and a stereotaxic frame equipped with a custom-designed probe holder as previously described (Lu, 2009; Williams, 2003). The injury severity was determined by the size of the balloon under control of the computerized hydraulic pressure. The balloon diameter calibrated to 0.63 cm expansion represented 10% of the total rat brain volume thus expressing a 10% PBBI. All surgeries were done under anaesthesia. Groups tested: Sham+vehicle, PBBI+vehicle, PBBI+cG-2-AllylP (30 mg/kg by oral gavage, 30 min post-injury, and again once daily until endpoint). AU procedures were approved by the Institutional Animal Care and Use Committee of WRAIR. Animals were housed in a facility accredited by the AAALAC. […]
Samples were analysed at 24 hr and 3 and 7 days post-injury for all groups (sham+vehicle, PBBI+vehicle, PBBI+cG-2-AllylP). […]

MeCP2-/y mice = test: Heart rate measurements (tail clip sensor); format: in vivo; conditions: 8 weeks old
Description: Real time cardiac pulse rate is measured using a tail clip sensor (Mouse OX Oximeter-Oakmont, Pa.). Mice are not anesthetized but physically restrained in a fitted open plastic tube. Prior to the recording session the tube is placed overnight in the cages housing the experimental animals to allow habituation. Body temperature is maintained at ˜82-84° F. throughout the recording time. We record 3 trials of 15 minutes for each mouse, mice are 8 weeks old and treated with vehicle or cG-2-AllylP from PIS.
To examine heart rate abnormalities in MeCP2−/y mice and the effect of cG-2-AllylP treatment, we monitor real time cardiac pulse rate in non-anesthetized wild type and MeCP2−/y animals treated with vehicle or cG-2-AllylP.

C=CC[C@]12CCCN1C(=O)CNC2=O [cG-2-AllylP, (8aS)-Allyl-hexahydropyrrolo[1,2-a]pyrazine-1,4-dione]
BAX levels (BAX): did not significantly alter BAX | occurrence of irregular heart rate with a lower average rate (MeCP2-/y mice): significantly reduced
